# Reference: US9440980B2, “Remedy for diabetes” (EA Pharma Co., Ltd., priority 2007, dated 2016)
# Test system: Akt phosphorylation in human liver-derived HLF cell
# Assay: Akt phosphorylation activity in Gβ expression inhibited HLF cell (siRNA, Western blot)
# Assay type: cell-based
# Conditions: FIG. 16
# Procedure: The effect of Gβ expression inhibition by a siRNA method against the Akt phosphorylation activity of Compound 6 in a human liver-derived HLF cell was evaluated as follows.
# The HLF cells were seeded in a Dulbecco MEM medium containing 10% FCS in a 24-well dish (IWAKI, Product No. 3820-024) at a ratio of 3.75×10^4 cells/well. The cells were cultured at 37° C. for 6 hours in the presence of 5% CO2 to achieve sufficient attachment, a siRNA was transfected into the cells at the concentration of 100 nM using Dharmafect 2 (Dharmacon, Product No. T-2002-02), and the resultant cells were cultured at 37° C. for 48 hours in the presence of 5% CO2. […] Each solution was subjected to an SDS polyacrylamide electrophoresis, and the phosphorylated Akt amount, the Gβ1 amount, the Gβ2 amount, and the Gβ4 amount were measured by a Western blot method using an anti-phosphorylated Akt antibody (Cell Signaling Technologies, Product No. 9271), an anti-Gβ1 antibody (SantaCruz, Product No. sc-379), an anti-Gβ2 antibody (SantaCruz, Product No. sc-380), and an anti-Gβ4 antibody (SantaCruz, Product No. sc-382). […]
smiles,measurement,setting,value
O=C1NCC2=C1[C@@H](c1ccccc1)N(C(=O)CO)[C@@H]1CCCC[C@H]1N2 [Compound 6],phosphorylated Akt amount,"HLF cells with Gβ siRNA (Gβ1, Gβ2, Gβ4)",not detected at any Compound 6 concentration
same,phosphorylated Akt amount,HLF cells with negative control siRNA,increased depending on the Compound 6 concentration
